# Source: patent US20250120902A1, “POSTBIOTIC FERMENT COMPOSITION FOR ROOT, SCALP, AND HAIR CARE AND METHOD OF PREPARING AND USING THE” (THE ROOTIST INC., priority 2023, published 2025)
# “And” between values parts separate entries of the source, which are not always exact repeats. Equal entries are not always repeated.
# Tested on: 3D hair follicle organoids (HFDPC and HEKn cells)
# Assay: Hair follicle organoid growth test
# Format: cell-based, Human
# Conditions: 1 μM
# From the text: Human Primary Dermal Papilla Cells (HFDPC) were collected from a person and provided by Kyungpook National University. Human Primary Epidermal Keratinocytes, neonatal foreskin (HEKn) cells were purchased from ATCC. […] The hair follicle organoid growth test aims to mass-produces hair follicle organoids by proliferating dermal papilla cells isolated from adult hair tissue in vitro, mixing them with keratinocytes, and then co-culturing them on a specially designed particle pattern substrate ([…], 150 spheroids/well). The experiment enables the assessment of the sample's impact on hair growth by monitoring changes in the diameter of keratinocyte pillars within the developed hair follicle organoid. In this test, to differentiate and validate the growth of HFDPC and HEKn cells, HFDPC cells were stained with Cell tracker CM-DilTM and HEKn cells were stained with Cell tracker Green CMFDATM. Stained HFDPC cells underwent filtration using a 15 μm strainer before being combined with DMEM medium to yield a density of 5×10^4 cells/well. Similarly, HEKn cells were adjusted to a density of 3×10^4 cells/well. […] 4) The test result measurements were initially analyzed using the Linear Mixed Model (LMM), which accounts for the random effects of each well. However, due to the lack of normality, the data were re-analyzed using the Generalized Linear Mixed Model (GLMM), which is suitable for non-normal data. […]
smiles,measurement,setting,value
"Nc1cc(N2CCCCC2)nc(N)[n+]1[O-] [Minoxidil, minoxidil]",Hair follicle organoid growth rate,"day 3, compared to the untreated group (100%)",114.67% and 114.67 ± 5.69%
same,hair follicle organoid diameter,"day 3, estimated mean ± standard deviation",25.77 ± 1.28 μm
